Laboratory results from patent publication US20240269158A1, “THERAPEUTIC AGENTS AND METHODS FOR TREATMENT OF BARTONELLOSIS” (THE ADMINISTRATORS OF THE TULANE EDUCATIONAL FUND, priority 2021, published 2024).
Read-outs that look alike come from different tables or passages of the source.

What was measured:
B. vinsonii = assay: MIC assay in liquid culture media (OD600); assay type: cell-based, B. vinsonii subsp. berkhoffii; conditions: Grace's insect media
Experimental: The B. henselae strains used were San Antonio 2, 267HO04, a human clinical isolate and B. vinsonii subsp. berkhoffii. Both the bacteria were initially grown on tryptic soy agar (TSA) supplemented with 5% defibrinated sheep blood plates that were either pre-made (Remel, R01198) or homemade, in a humidified atmosphere at 37° C. with 5% CO2 for 7 days. For the preparation of liquid cultures, an individual well-grown colony from the plate was resuspended in 15 ml Falcon tubes containing 3 mL of either Schneider's insect media supplemented with 10% FBS, or Grace's insect media (Gibco, 11605-094) supplemented with 10% FBS, or BAPGM serum-free liquid media. The cultures grew for 7 more days in the atmosphere as above without shaking. The number of viable bacteria was determined by either plating serial dilutions of the culture on plates for CFU or by live/dead staining. Before every experiment, bacteria were mixed well and passed through 22-gauge needle to break large clumps of bacteria.
Optical density (OD) of 7-day old bacterial liquid culture that was grown from an individual colony was measured using a spectrophotometer (Bio-Rad, SmartSpec 300, 170-2501). Bacterial culture was then diluted down to an OD of 0.1 ? 3×10^8 cfu/ml with the respective media.
To determine the MIC of the antibiotics and for the visualization of the bacterial growth, a clear 96-well plate was used. Into each well of a 96-well plate, 50 μl of the 0.1 OD bacterial culture and 50 μl of the liquid media containing antibiotics were added to the wells bringing the total volume to 100 μl of 0.05 OD bacteria (CFU ? 1.5×10^7) in each well. Wells containing only bacteria with solvent used in the dilution of the antibiotics served as a positive control to verify the growth of bacteria. As a negative control, wells containing only media and solvents were used. Each concentration of diluted antibiotic was run in 4 replicates to minimize the error rate. The 96-well plate was covered with the lid and incubated at 37° C. with 5% CO2. OD of the culture was read after 48 hrs and 96 hrs using a hybrid multi-mode microplate reader (Biotek, Synergy H4 hybrid reader) at OD600. The assay was repeated three times.
(§1) Therapeutic agent stocks were prepared in the following solvents: 10 mg/ml of ceftriaxone (USP), doxycycline (Fisher scientific, D9891-1G), gentamicin (Fisher scientific, 1405-41-0), ampicillin (Fisher scientific, 69-52-3) and azlocillin (Flightpath) in sterile cell culture grade water, whereas 5 mg/ml of azithromycin (Sigma, PZ0007-5MG) was dissolved in sterile cell culture grade DMSO. Antibiotics were then aliquoted and stored at either −80° C. or −20° C. until further use. On the day of assay, these stock concentrations were diluted to 1 mg/ml and 100 μg/ml in the respected bacterial culture media for MIC and cell-free, liquid culture MBC assays. For the DH82 cell-based MBC assay, antibiotics were diluted in EMEM media supplemented with 15% heat inactivated FBS.
The determination of susceptibility to therapeutic agents was performed in liquid culture media. Six different therapeutic agents were tested with multiple different concentrations against B. henselae and B. vinsonii. Therapeutic agent concentrations tested were as follows: Ceftriaxone 0.001, 0.01, 0.1, 0.3, 0.5, 1, 2, and 5 μg/ml; doxycycline 0.001, 0.01, 0.1, 0.3, 0.5, 1, 2, 5, and 10 μg/ml, gentamicin: 0.01, 0.1, 0.3, 0.5, 1, 2, 4, 8, and 16 μg/ml, and azithromycin: 0.001, 0.005, 0.02, 0.1, 0.3, 0.5, 1, 2, 5, and 10 μg/ml, were tested based on previous antibiotic susceptibility studies. The following azlocillin dilutions were included: 0.001, 0.005, 0.01, 0.02, 0.5, 1, 2, and 5 μg/ml. The ampicillin dilutions included were as follows: 0.001, 0.005, 0.01, 0.02, 0.5, 1, 2, 4, and 8 μg/ml. Both the species of Bartonella were susceptible to all the antibiotics that were used in BAPGM and Grace's culture liquid mediums. […]

[1] = tested on: intracellular B. henselae in DH82 cells; assay: DH82 cell-based MBC assay (coculture); parameters: species or system Bartonella henselae (canine DH82 cells); conditions: for MBC: B. henselae, DH82 cell-based assay, 96 hours; for effect of individual therapeutic agent on B. henselae growth: DH82 cell-based system, 16 μg/ml, agents used individually
Experimental: DH82 are a canine cell line having a macrophage-like morphology. Cells were initially cultured in T75-Flasks (Corning, 430641U) until confluency was reached and were split at a ratio of 1:4 for every 2-3 days. Cells were then seeded into either 24-well cell culture plates (Corning, 3526) for coculture assay or 8-well chamber slides (Millipore #PEGGS0816) for immunofluorescence assays. A total of 50,000 cells were seeded into each well of a 24-well plate or per chamber of an 8-well chamber slide with EMEM with 15% FBS and incubated for 24-48 hours before infections.
as §1
Bacteria (B. henselae) that were grown in Grace's insect media, were centrifuged at 7000 rpm for 10 min. The supernatant was removed and washed with 1×PBS for three times. After the washes, pellet was resuspended in EMEM media supplemented with 15% heat inactivated FBS. This bacterial suspension was then added to DH82 cells at a multiplicity of infection (MOI) of 1:50 and incubated for 2 hours. After 2 hours, unbound bacteria were removed by washing the cells with only EMEM media 3 times each 15 min wash. Cells were then incubated with EMEM+15% FBS media at 37° C. with 5% CO2 for 48 hours.
After 48 hrs of incubation, the media was removed from the cells and the therapeutic agents that were diluted in EMEM+15% FBS was added. Each therapeutic agent was diluted at 11 different concentrations (16, 8, 4, 2, 1, 0.5, 0.25, 0.125, 0.062, 0.031, 0.0156 μg/ml), as described above and incubated for 96 hours. […] The bactericidal activity of the therapeutic agents were then evaluated by plating the lysed cells on blood agar plates. Briefly, infected DH82 cells were initially washed for 30 min twice to remove the antibiotics that were added. Later, cells were osmotically lysed by adding 1 ml of sterile ice-cold distilled water and incubated for 5 min on ice. The lysed cells were then plated onto blood agar plates and incubated at 37° C. with 5% CO2 for about 10 days to evaluate the growth of viable B. henselae. This experiment was conducted in duplicates and repeated twice with all 6 antibiotics including 11 different concentrations. The untreated infected cells were used as a positive control and untreated uninfected cells served as a negative control. The CFU counts are presented as average±standard deviation.
To evaluate the bactericidal activity and to determine if these antibiotics could penetrate the eukaryotic […], a new DH82 cell-based coculture system was utilized. […] Uninfected cells stained with primary rabbit B. henselaehyperimmunized polyclonal (primary) and goat anti-rabbit IgG Alexa fluor 594 (secondary) antibodies were used as a negative control. As an isotype control, DH82 cells infected with B. henselae and incubated with primary rabbit IgG were used.

[2] = Bartonella henselae, read-out: MBC

Molecule | MIC (B. vinsonii) [µg/mL] | MBC [1] [µg/mL] | MIC (B. vinsonii; read-out: MIC) [µg/mL] | MBC [1, 2] [µg/mL] | effect of individual therapeutic agent on B. henselae growth [1]
gentamicin | 2.0 to 4.0 | >16 | – | – | –
CC1(C)S[C@@H]2[C@H](NC(=O)[C@H](NC(=O)N3CCNC3=O)c3ccccc3)C(=O)N2[C@H]1C(=O)O [Azlocillin, azlocillin] | – | – | 0.001 to 0.005 | > 16 | showed reduced bacterial growth but were unable to completely inhibit the growth
CC[C@H]1OC(=O)[C@H](C)[C@@H](O[C@H]2C[C@@](C)(OC)[C@@H](O)[C@H](C)O2)[C@H](C)[C@@H](O[C@@H]2O[C@H](C)C[C@H](N(C)C)[C@H]2O)[C@](C)(O)C[C@@H](C)CN(C)[C@H](C)[C@@H](O)[C@]1(C)O [Azithromycin, azithromycin] | – | – | 0.1 to 0.3 | > 16 | showed reduced bacterial growth but were unable to completely inhibit the growth
CO/N=C(\C(=O)N[C@@H]1C(=O)N2C(C(=O)O)=C(CSc3nc(=O)c(=O)[nH]n3C)CS[C@H]12)c1csc(N)n1 [Ceftriaxone, ceftriaxone] | – | – | 0 to 0.01 | > 16 | –
